Source: ChEMBL document CHEMBL5465560, “Selectivity Literature for EUbOPEN Chemogenomic Library” (2024)
Blank lines part the entries; values can stand above or below the molecule they belong to.

Columns and labels:
[1] = biological target: T1, Serine/threonine-protein kinase TBK1 (Homo sapiens) (UniProt Q9UHD2); assay: Selectivity interaction (ActivX KiNativ screen (kinase selectivity in THP-1 cell lysates)) EUB0000639a TBK1; assay type: subcellular; conditions: lysate, at 1 µM
T1 sequence (whole entry): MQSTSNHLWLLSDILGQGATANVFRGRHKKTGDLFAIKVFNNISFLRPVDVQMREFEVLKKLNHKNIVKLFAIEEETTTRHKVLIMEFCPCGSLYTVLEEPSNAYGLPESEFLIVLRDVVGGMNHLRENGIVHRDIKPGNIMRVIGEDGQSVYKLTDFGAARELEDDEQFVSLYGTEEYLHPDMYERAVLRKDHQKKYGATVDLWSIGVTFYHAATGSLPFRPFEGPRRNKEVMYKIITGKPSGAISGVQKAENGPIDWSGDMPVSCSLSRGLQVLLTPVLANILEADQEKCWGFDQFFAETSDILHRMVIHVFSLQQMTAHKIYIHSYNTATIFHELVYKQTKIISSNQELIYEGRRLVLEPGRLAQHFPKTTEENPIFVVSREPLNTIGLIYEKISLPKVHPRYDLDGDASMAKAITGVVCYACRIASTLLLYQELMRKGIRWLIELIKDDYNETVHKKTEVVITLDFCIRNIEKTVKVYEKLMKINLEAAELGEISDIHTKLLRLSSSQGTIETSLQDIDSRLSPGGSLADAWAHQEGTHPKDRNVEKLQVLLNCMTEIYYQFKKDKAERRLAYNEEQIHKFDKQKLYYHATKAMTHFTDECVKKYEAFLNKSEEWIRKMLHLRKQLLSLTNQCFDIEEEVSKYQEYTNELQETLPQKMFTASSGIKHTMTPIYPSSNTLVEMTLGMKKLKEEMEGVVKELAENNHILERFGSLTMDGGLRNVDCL

[2] = biological target: T2, Muscarinic acetylcholine receptor M2 (Homo sapiens) (UniProt P08172); assay: Selectivity interaction (Panel of non-epigenetic targets (kinases, GPCRs, ion channels, and transporters, Eurofins) ) EUB0000271b CHRM2; conditions: at 1 µM
T2 sequence (whole entry): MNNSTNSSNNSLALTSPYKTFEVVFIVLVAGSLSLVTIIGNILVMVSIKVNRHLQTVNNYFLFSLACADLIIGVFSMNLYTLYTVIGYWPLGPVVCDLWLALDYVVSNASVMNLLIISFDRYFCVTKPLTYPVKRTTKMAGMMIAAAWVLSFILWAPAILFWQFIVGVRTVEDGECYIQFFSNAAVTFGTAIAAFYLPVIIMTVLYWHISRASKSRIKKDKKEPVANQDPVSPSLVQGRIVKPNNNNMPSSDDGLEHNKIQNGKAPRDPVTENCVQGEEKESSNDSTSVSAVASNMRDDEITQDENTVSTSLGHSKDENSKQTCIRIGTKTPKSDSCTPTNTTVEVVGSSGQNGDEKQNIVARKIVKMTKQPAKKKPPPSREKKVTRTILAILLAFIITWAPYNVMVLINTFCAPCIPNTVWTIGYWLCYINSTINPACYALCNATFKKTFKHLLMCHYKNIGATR

Insulin receptor = Insulin receptor (Homo sapiens, UniProt P06213); assay: Selectivity interaction (ProQinase) EUB0000171b INSR; conditions: at 5 µM
Sequence of Insulin receptor (P06213 28-758 limits assumed): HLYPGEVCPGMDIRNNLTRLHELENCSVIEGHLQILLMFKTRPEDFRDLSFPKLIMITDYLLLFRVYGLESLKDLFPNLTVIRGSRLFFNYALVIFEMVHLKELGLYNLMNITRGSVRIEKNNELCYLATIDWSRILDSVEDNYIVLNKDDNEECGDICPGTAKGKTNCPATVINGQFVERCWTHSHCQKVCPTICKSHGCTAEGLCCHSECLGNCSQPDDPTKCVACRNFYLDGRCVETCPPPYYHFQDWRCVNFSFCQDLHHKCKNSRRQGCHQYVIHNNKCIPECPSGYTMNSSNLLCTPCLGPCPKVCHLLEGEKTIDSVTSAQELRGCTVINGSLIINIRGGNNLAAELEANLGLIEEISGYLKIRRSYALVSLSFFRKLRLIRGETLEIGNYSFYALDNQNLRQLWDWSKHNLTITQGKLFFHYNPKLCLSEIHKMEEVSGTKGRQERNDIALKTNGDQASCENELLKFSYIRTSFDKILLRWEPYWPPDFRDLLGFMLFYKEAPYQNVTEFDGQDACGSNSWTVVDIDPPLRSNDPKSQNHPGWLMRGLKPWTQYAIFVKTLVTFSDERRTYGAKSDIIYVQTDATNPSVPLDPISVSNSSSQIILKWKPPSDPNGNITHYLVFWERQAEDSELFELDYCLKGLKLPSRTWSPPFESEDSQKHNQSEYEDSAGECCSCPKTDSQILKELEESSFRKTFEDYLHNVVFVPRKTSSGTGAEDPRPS
Sequence of Insulin receptor (P06213 763-1382 limits assumed): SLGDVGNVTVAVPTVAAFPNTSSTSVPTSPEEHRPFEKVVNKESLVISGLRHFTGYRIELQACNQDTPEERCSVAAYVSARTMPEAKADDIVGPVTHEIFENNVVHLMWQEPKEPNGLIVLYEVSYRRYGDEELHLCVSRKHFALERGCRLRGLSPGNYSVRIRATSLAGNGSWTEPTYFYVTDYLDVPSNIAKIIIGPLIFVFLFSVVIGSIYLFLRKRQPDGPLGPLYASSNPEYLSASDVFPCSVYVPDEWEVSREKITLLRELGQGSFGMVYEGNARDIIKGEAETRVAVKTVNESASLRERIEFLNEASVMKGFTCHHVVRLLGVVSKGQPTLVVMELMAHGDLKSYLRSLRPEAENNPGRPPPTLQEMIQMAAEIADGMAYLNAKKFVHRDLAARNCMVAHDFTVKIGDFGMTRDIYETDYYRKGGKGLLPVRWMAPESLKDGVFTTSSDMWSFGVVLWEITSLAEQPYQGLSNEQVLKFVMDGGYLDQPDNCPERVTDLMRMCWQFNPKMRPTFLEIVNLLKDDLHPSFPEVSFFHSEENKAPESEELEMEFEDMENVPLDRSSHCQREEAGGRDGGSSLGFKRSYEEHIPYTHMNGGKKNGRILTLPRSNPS

[3] = biological target: Protein kinase C gamma type (Homo sapiens) (UniProt P05129); assay: Selectivity interaction (Upstate Kinase Profiler service (Millipore)) EUB0000056c PRKCG; conditions: at 1 µM
[4] = biological target: Non-receptor tyrosine-protein kinase TYK2 (Homo sapiens, UniProt P29597); assay: Selectivity interaction (KinomeScan (DiscoverX)) EUB0000045b TYK2; conditions: at 10 µM
[5] = biological target: Serine/threonine-protein kinase pim-2 (Homo sapiens, UniProt Q9P1W9); assay: Selectivity interaction (KinomeScan (DiscoverX)) EUB0000045b PIM2
Sequence of Serine/threonine-protein kinase pim-2 (Q9P1W9 whole entry, looked up, the tested form may be a part): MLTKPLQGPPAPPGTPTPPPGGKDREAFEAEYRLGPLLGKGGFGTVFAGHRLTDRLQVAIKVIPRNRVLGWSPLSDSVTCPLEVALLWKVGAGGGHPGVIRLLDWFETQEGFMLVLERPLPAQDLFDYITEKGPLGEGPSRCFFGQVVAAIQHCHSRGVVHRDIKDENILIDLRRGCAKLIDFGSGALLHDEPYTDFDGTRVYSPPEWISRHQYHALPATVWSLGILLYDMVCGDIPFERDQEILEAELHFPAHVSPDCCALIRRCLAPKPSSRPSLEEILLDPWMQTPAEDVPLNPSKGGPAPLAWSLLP

[6] = biological target: T3, Discoidin domain-containing receptor 2 (Homo sapiens) (UniProt Q16832); assay: Selectivity interaction (KinomeScan (DiscoverX)) EUB0001619a DDR2; conditions: at 1 µM
T3 sequence (whole entry): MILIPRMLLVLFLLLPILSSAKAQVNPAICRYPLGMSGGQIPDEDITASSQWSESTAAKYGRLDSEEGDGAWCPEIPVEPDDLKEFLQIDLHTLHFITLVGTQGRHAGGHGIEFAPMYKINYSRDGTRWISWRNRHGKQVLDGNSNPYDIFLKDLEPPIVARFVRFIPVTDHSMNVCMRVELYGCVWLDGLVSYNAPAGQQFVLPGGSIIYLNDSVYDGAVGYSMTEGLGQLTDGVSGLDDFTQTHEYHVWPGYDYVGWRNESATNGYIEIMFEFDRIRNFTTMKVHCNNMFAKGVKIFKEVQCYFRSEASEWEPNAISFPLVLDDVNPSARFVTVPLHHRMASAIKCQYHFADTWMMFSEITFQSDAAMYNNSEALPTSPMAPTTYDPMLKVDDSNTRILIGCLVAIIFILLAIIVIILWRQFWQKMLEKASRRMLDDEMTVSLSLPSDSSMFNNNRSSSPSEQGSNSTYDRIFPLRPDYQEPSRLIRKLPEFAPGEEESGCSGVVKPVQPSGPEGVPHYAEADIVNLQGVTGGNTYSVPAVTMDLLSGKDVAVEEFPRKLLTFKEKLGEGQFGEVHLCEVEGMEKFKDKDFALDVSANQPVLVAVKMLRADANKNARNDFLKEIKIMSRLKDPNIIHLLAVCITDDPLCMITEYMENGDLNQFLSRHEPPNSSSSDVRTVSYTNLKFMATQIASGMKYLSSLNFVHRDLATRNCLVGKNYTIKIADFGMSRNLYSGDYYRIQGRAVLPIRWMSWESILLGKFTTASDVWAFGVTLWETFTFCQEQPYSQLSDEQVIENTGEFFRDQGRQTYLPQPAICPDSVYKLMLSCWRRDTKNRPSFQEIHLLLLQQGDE

[7] = biological target: Macrophage colony-stimulating factor 1 receptor (Homo sapiens) (UniProt P07333); assay: Selectivity interaction (SelectScreen profiling (Invitrogen)) EUB0000607a CSF1R; conditions: at 2 µM
Sequence of Macrophage colony-stimulating factor 1 receptor (Homo sapiens) (P07333 whole entry): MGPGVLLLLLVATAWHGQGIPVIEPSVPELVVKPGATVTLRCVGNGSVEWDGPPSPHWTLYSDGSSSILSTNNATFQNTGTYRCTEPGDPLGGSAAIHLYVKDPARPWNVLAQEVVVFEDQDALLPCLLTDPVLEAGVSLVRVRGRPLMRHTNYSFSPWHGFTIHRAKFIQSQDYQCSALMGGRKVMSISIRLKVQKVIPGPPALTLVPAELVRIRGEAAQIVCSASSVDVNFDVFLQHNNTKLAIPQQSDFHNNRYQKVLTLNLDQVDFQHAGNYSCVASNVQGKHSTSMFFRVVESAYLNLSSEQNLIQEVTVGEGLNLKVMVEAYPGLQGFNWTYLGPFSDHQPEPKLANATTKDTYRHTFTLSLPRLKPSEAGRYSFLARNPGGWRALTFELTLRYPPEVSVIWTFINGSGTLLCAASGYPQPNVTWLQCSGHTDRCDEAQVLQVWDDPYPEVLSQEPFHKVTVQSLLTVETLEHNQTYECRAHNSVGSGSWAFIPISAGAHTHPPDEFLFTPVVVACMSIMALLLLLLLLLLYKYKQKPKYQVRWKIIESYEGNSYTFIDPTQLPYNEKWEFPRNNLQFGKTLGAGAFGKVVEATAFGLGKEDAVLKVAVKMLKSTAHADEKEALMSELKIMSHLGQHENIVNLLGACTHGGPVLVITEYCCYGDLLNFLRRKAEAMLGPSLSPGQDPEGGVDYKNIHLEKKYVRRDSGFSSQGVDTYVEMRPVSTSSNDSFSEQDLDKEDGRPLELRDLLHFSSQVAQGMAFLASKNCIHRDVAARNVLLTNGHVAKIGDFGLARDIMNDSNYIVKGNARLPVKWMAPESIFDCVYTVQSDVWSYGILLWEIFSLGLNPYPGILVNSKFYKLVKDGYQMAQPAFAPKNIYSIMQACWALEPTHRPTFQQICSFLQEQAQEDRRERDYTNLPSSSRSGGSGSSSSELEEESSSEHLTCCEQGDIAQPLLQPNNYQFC

[8] = biological target: Cyclin-dependent kinase 20 (Homo sapiens) (UniProt Q8IZL9); assay: Selectivity interaction (Kinase panel (KiNativ target engagement assay in Jurkat cells)) EUB0001635a CDK20; assay type: cell-based; conditions: Selectivity number of off-targets 0.0, Selectivity number of targets 233.0, Source Knowledge https://www.sciencedirect.com/science/article/pii/S2451945619300674?via%3Dihub, at 1 µM
Sequence of Cyclin-dependent kinase 20 (Homo sapiens) (Q8IZL9 whole entry, canonical isoform): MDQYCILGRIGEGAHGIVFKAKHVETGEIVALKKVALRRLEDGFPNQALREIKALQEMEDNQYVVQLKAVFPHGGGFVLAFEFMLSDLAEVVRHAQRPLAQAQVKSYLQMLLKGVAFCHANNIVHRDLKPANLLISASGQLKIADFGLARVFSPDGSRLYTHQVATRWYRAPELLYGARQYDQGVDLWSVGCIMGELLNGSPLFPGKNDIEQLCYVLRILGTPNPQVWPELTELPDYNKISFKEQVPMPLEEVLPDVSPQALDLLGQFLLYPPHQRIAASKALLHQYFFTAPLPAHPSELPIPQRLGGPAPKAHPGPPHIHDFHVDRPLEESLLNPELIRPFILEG

[9] = biological target: Casein kinase I isoform delta (Homo sapiens, UniProt P48730); assay: Selectivity interaction (KinomeScan (DiscoverX)) EUB0000666a CSNK1D; conditions: at 10 µM
Sequence of Casein kinase I isoform delta (P48730 whole entry, looked up, canonical isoform): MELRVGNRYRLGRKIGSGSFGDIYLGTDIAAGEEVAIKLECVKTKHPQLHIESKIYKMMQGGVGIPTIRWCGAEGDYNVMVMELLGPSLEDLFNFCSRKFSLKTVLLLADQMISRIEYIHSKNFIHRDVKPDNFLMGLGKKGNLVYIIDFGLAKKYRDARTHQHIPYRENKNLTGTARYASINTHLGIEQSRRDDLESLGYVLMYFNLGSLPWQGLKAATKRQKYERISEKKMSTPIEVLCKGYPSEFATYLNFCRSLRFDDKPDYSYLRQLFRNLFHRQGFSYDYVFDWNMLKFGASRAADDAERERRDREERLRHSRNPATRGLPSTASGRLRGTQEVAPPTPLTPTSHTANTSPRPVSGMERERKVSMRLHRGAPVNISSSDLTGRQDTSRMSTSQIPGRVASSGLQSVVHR

% of inhibition [1]: 7.6%
Compound: CC[C@@H]1[C@H](F)C(=O)N[C@@H]1COc1nccc2cc(C(N)=O)c(OC)cc12 [ZIMLOVISERTIB]

Compound: Cc1cc(C)cc([C@@H]2c3cc(C)ccc3NC(=O)CN2C(=O)c2ccc(Br)s2)c1
% of inhibition [2]: -5%

% of control (Insulin receptor): 72%
Compound: C=CC(=O)Nc1cccc(C(=O)Nc2ccc(Nc3cc(-c4[nH]c(SC)nc4C)ccn3)cc2)c1

% of inhibition [3]: 17%
Compound: Cc1ccc(-c2ccc3c(ccc4sc5c(c43)NC[C@@H](C)NC5=O)n2)cn1

Compound: C=CC(=O)Nc1cc(-n2c(=O)ccc3cnc4ccc(-c5ccc(NS(C)(=O)=O)cc5)cc4c32)ccc1C
% of control [4]: 100%
% of control ([5]; at 1 µM): 66%
% of control ([5]; at 10 µM): 100%

Compound: N#Cc1cccc(-c2c[nH]c3ncnc(N4CCOCC4)c23)c1
% of control [6]: 71%

Compound: CNC(=O)Nc1ccc(-c2nc(N3CC4CCC(C3)O4)c3cnn(C4CCC5(CC4)OCCO5)c3n2)cc1
% of inhibition [7]: 7%

Compound: C=CC(=O)Nc1ccc(C(=O)Nc2[nH]nc3c2CN(C(=O)N[C@H](CN(C)C)c2ccccc2)C3(C)C)cc1
% of engagement [8]: 4.7%

Compound: O=C(NOC[C@H](O)CO)c1ccc(F)c(F)c1Nc1ccc(I)cc1F
% of control [9]: 100%
